{
  "source": "BindingDB's records for doi:10.1021/jm00113a020",
  "about": "(Case Western Reserve University, 1991)",
  "note": "Starred links: 1 amine or outer side, 2 acyl side, 3 side chain; linkers in the order of their positions; H or OH if unused. Residues, ends and D or L forms follow the SMILES beside them. Ethylenediamine = C(CN[*:2])N[*:1]; GABA = NCCCC(=O)O",
  "data": [
    {"test": "The compound was tested for binding activity towards Opioid receptor delta 1 in guinea pig brain membranes.", "units": {"Ki": "µM"}, "values": [
      {"compound": "NCCCC(=O)NCCNC(=O)[C@H](Cc1ccccc1)NC(=O)CNC(=O)CNC(=O)[C@@H](N)Cc1ccc(O)cc1", "note": "(H-YGGF-{Ethylenediamine-GABA})", "Ki": 10.1},
      {"compound": "NCCCC(=O)NCCCN(CCCNC(=O)[C@H](Cc1ccccc1)NC(=O)CNC(=O)CNC(=O)[C@@H](N)Cc1ccc(O)cc1)C(=O)CCCN", "note": "(HELM PEPTIDE1{Y.G.G.F.[NCCCC(=O)NCCCN(CCCN[*:1])C(=O)CCCN]}$$$$V2.0)", "Ki": 8.43},
      {"compound": "NCCCC(=O)NCCN(CCNC(=O)[C@H](Cc1ccccc1)NC(=O)CNC(=O)CNC(=O)[C@@H](N)Cc1ccc(O)cc1)C(=O)CCCN", "note": "(HELM PEPTIDE1{Y.G.G.F.[NCCCC(=O)NCCN(CCN[*:1])C(=O)CCCN]}$$$$V2.0)", "Ki": 22.7},
      {"compound": "NCCCC(=O)NCCN(CCN(CCNC(=O)[C@H](Cc1ccccc1)NC(=O)CNC(=O)CNC(=O)[C@@H](N)Cc1ccc(O)cc1)C(=O)CCCN)C(=O)CCCN", "note": "[4-Amino-N-[2-(4-amino-butyrylamino)-ethyl]-N-[2-((4-amino-butyryl)-{2-[2-(2-{2-[2-amino-3-(4-hydroxy-phenyl)-propionylamino]-acetylamino}-acetylamino)-3-phenyl-propionylamino]-ethyl}-amino)-ethyl]-butyramide] (HELM PEPTIDE1{Y.G.G.F.[NCCCC(=O)NCCN(CCN(CCN[*:1])C(=O)CCCN)C(=O)CCCN]}$$$$V2.0)", "Ki": "> 10"},
      {"compound": "CC[C@H](C)[C@H](NC(=O)[C@H](CCCN=C(N)N)NC(=O)[C@H](CCCN=C(N)N)NC(=O)[C@H](CC(C)C)NC(=O)[C@H](Cc1ccccc1)NC(=O)CNC(=O)CNC(=O)[C@@H](N)Cc1ccc(O)cc1)C(=O)N[C@@H](CCCN=C(N)N)C(=O)N1CCC[C@H]1C(=O)N[C@@H](CCCCN)C(=O)N[C@@H](CC(C)C)C(=O)N[C@@H](CCCCN)C(=O)O", "note": "[Dynorphin A (1-13)]", "Ki": 0.016}
    ]}
  ]
}
